The source of these data is US9120762B2, “Salts of bicyclo-substituted pyrazolon azo derivatives, preparation method and use thereof” (Jiangsu Hengrui Medicine Co., Ltd., priority 2009, dated 2015).

The structures appear in SMILES notation. Read-outs that look alike come from different tables or passages of the source.

One series concerns the target T1, human TPOR (Homo sapiens, UniProt P40238).
T1 construct: host or cells: BaF3 (murine pro-B cells), stably transfected, G418-selected
T1 sequence (P40238 26-635): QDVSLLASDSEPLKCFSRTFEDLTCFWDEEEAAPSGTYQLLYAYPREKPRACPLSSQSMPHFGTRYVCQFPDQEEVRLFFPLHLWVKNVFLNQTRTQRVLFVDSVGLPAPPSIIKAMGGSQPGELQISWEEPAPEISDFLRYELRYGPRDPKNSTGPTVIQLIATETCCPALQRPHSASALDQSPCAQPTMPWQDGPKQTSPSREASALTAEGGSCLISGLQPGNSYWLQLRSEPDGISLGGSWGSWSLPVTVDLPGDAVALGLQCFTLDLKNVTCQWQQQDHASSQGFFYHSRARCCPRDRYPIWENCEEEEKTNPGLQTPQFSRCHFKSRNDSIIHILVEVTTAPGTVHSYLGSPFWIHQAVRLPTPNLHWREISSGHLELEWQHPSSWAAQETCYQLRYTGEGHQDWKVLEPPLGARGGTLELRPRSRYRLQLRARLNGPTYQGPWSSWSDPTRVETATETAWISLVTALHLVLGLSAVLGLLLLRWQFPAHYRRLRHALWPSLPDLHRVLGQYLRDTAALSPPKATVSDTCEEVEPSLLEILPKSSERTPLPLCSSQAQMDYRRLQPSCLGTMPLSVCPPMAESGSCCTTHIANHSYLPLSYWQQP
Nature of the series: Proliferation effect on BAF3-TPOR cell (CCK-8). The format is cell-based. The note with it: rate relative to rhTPO positive control. How it is done:
(1) Plasmid constructs: based on the TPO receptor (TPOR) sequence information from Entrez (Gene ID: 4325, Refseq: NM_005373), dual-site mutation was performed on EX-B0010-M02 plasmid by using QuikChange® Multi Site Directed Mutagenesis Kit (Stratagene). The sequence of primers containing multi-sites mutation was designed as follows: […]
The E. coli DH5α competent cells were transformed with mutated plasmid, and positive colonies were picked up through ampicillin selection. The mutation result was confirmed by sequence analysis.
(2) BAF3-TPOR stable transfected cell line: the following method was used to construct the BaF3 cell which stably over-expressed functional human TPOR. The successfully mutated EX-B0010-M02 plasmid ([…]) which expressed human TPOR and screening gene neomycin was transfected into wild-type BaF3 cells (1×10^7) by electroporation at 250V for 18 ms using an electric pulse generator (Electro Square Porator ECM830, BTX Division of Genetronic, Inc. US). The stable transfected cells BAF3-TPOR were selected with G418 (Gibco, US), then incubated in RPMI1640 medium plus 10% FBS (Gibco, US), […] G418, 5 ng/mL, rmIL-3 (Chemicon, US).
(1) Washing cells by centrifugation: a suitable amount of cell suspension was centrifuged at 1000 rpm for 5 minutes, and the supernatant was discarded. 10 mL of cell culture media without IL-3 was added. Then the resulting cell suspension was centrifuged at 1000 rpm for 5 minutes, and the supernatant was discarded.
(2) 1 mL of cell culture media without IL-3 was added to beat upon them to equality, and the number of a suitable amount of cell suspension was counted after dilution.
(3) According to the result of the cell counting, a cell suspension in a concentration of 100,000 cell/mL was prepared.
(4) 100 μL of cell suspension was transferred to each well of 96-well culture plate, and there were 3 parallel wells, that is, there were a blank control group (B), a negative control group (N), a positive control group of TPO (P) and a test compound group (S).
(5) The test compound was dissolved in DMSO to prepare a 10 mM stock solution, and then the solution was diluted with RPMI 1640 medium into a series of test samples at different concentration: 30 μM, 10 μM, 3 μM, 1 μM, 0.3 μM, 0.1 μM, 0.03 μM, 0.01 μM, 0.003 μM, 0.001 μM.
(6) 10 μL of test compound solution was transferred to each well respectively; 1 μL of rhTPO (10 ng/mL) was added to positive control well.
(7) The plates were incubated in an incubator at 5% CO2 and 37° C. for 24 hours.
(8) After incubation, 10 μL of CCK-8 solution was added to each well and the plates were incubated in the incubator for another 24 hours.
(9) OD value was detected at 450 nm by VICTORS (Perkin Elmer 1420-120) plate reader.
(1) The proliferation rate was calculated as follows: Rate=[(S−B)/(P−B)]*100%
S: OD value of wells which contain test compound.
B: OD value of blank control wells
P: OD value of positive control wells
(2) The EC50 value was calculated by Origin 7.0 software.

A short description of series [1]: Hygroscopicity assay, standing 48 hours at 25° C., humidity 79%. Type of series: physicochemical. The note with it: 48 hours, 25° C., humidity 79%. The method, then: The hygroscopicity test of the compounds of the present disclosure after standing for 48 hours
1. The arid glass weighing bottle with a tap (external diameter is 50 mm, the height is 15 mm) was placed at 25° C.±1° C. suitably in a thermostatic drier (saturated ammonium sulfate solution was laid in the lower part, humidity was 79%) the day before the assay, precise weight was measured as (m1);
2. The above weighing bottle was covered with the compounds of the invention (about 1 g), and the thickness of the compounds were generally 1 mm, precise weight was measured as (m2);
3. The mouth of the weighing bottle was kept open and placed with the tap in the above conditions with constant temperature and humidity for 48 hours;
4. Put the tap back on the bottle, precise weight was measured as (m3)
The degree of hygroscopicity was defined as follows: […]
Deliquesce: turning into liquid by absorbing enough moisture.
High hygroscopicity: the percentage of hygroscopicity weight gain is not less than 15%.
Hygroscopicity: the percentage of hygroscopicity weight gain is less than 15%, but not less than 2%.
Sparing hygroscopicity: the percentage of hygroscopicity weight gain is less than 2%, but not less than 0.2%.
No hygroscopicity or almost no hygroscopicity: the percentage of hygroscopicity weight gain is less than 0.2%.

Series [2] is described as follows: Pharmacokinetics assay in rats. The format is in vivo, SD rats. Conditions: SD rats, intragastric, 50 mg/Kg (as free acid); for MRT: read-out: Mean Residence Time MRT; for Tmax: read-out: Time to peak Tmax. Summed up:
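SD rats, half male and half female, dosed intragastrically with compound suspended at 5 mg/mL (as free acid) in 1% sodium carboxymethyl cellulose; fed 2 h post-dose. Plasma concentrations over time were measured by HPLC-UV. Parameters came from a compartmental fit, with Cmax and tmax as observed values.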

Series [3] can be described thus: Solubility assay in water, 0.1% hydrochloric acid and methanol. Type of series: physicochemical. How it is done:
The solubility was characterized by:
The term “very soluble” refers to that 1 g (mL) of solute can be dissolved in less than 1 mL of solvent;
The term “freely soluble” refers to that 1 g (mL) of solute can be dissolved in from 1 mL to 10 mL, not including 10 mL of solvent;
The term “soluble” refers to that 1 g (mL) of solute can be dissolved in from 10 mL to 30 mL, not including 30 mL of solvent;
The term “sparingly soluble” refers to that 1g (mL) of solute can be dissolved in from 30 mL to 100 mL, not including 100 mL of solvent;
The term “slightly soluble” refers to that 1g (mL) of solute can be dissolved in from 100 mL to 1000 mL, not including 1000 mL of solvent;
The term “very slightly soluble” refers to that 1g (mL) of solute can be dissolved in from 1000 mL to 10000 mL, not including 10000 mL of solvent;
The term “practically insoluble or insoluble” refers to that 1g (mL) of solute cannot be dissolved completely in 10000 mL of solvent.

The mark [4] stands for this setting: 0.1% hydrochloric acid, simulated gastric fluid, 0.1% hydrochloric acid, read-out: solubility.
Where [5] appears, read: both sexes, SD, rat, plasma, po, 50 mg/kg.

In general, EC50 refers to the midpoint of the concentration-response curve. Lower therefore signals a more potent agent. As to `CC1=NN(c2ccc3c(c2)CCCC3)C(=O)/C1=N\Nc1cccc(-c2ccc(C(=O)O)o2)c1O` [Example 23, (Z)-5-(2-hydroxy-3-{N′-[3-methyl-5-oxo-1-(5,6,7,8-tetrahydro-naphthalen-2-yl)-1,5-dihydro-pyrazol-4-ylidene]-hydrazino}-phenyl)-furan-2-carboxylic acid choline], at human TPOR, a half-maximal effect (EC50) was put at 43 nM. Also, in series [1], the “Percentage of weight gain” value amounted to 8.48% and the hygroscopicity result is “Hygroscopicity (the percentage of hygroscopicity weight gain is less than 15%, but not less than 2%)”. Further, in series [2] (50 mg/kg), the “Area Under Curve AUC” value turned out to be 123 ± 89.5 µg·h/mL, the “Clearance CL/F” value amounted to 8.78 ± 4 mL/min/kg, the “Half-Life t½” value was found to be 7.61 ± 1.34 h and the “Plasma Conc. Cmax” value came to 17200 ± 12300 ng/mL. In series [2] (50 mg/kg), the “Time to peak Tmax” value turned out to be 3.25 ± 3.18 h.
As usually defined, the solubility is the dissolved amount per volume that the medium holds. Usually MRT stands for the average time that molecules of a dose stay in the body. For orientation: Tmax means the time from dosing to the highest level. Consider `CC1=NN(c2ccc3c(c2)CCC3)C(=O)/C1=N\Nc1cccc(-c2ccc(C(=O)O)o2)c1O` [Example 16a, (Z)-5-{2-hydroxy-3-[N′-(1-indan-5-yl-3-methyl-5-oxo-1,5-dihydro-pyrazol-4-ylidene)-hydrazino]-phenyl}-furan-2-carboxylic acid], for which, on human TPOR, the EC50 turned out to be 100 nM. Also, the solubility in series [3] (setting [4]) was less than 1 µg/mL. This compound showed a solubility in series [3] (methanol) of less than 1 µg/mL. The same compound registered a solubility in series [3] (water) of less than 1 µg/mL. In series [2] (50 mg/kg), the “Area Under Curve AUC” value was found to be 15.0 ± 17.2 µg·h/mL, the “Clearance CL/F” value came to 49.7 ± 45.8 mL/min/kg, the “Half-Life t½” value was determined as 1.82 ± 0.68 h and the “Plasma Conc. Cmax” value amounted to 6810 ± 6230 ng/mL. Moreover, in series [2] (setting [5]), the MRT was 4.03 ± 2.55 h and the Tmax came out at 2.75 ± 0.96 h.
One may read the AUC as the area under the concentration-time curve, a measure of exposure. Broadly, the half-life is how long it takes for the measured level to halve. As a reminder, the Cmax is the maximum level reached in the sampled fluid or tissue. The compound `CC1=NN(c2ccc3c(c2)CCCC3)C(=O)/C1=N\Nc1cccc(-c2ccc(C(=O)[O-])o2)c1[O-].[Na+].[Na+]` [Example 14, (Z)-5-(2-hydroxy-3-{N′-[3-methyl-5-oxo-1-(5,6,7,8-tetrahydro-naphthalen-2-yl)-1,5-dihydro-pyrazol-4-ylidene]-hydrazino}-phenyl)-furan-2-carboxylic acid disodium salt] came in with an EC50 on human TPOR of 19 nM. For the same compound, the solubility in series [3] (setting [4]) was less than 1 µg/mL; in series [3] (methanol, organic solvent or mixture, methanol, read-out: solubility), 3720 µg/mL; in series [3] (water, read-out: solubility), 1880 µg/mL. The Vd/F in series [2] (both sexes, SD, rat, plasma, po, 50 mg/kg, read-out: Apparent Distribution Volume Vz/F) came out at 9.54 ± 8.03 L/kg. Besides, the area under the curve (AUC) in series [2] (both sexes, SD, rat, plasma, po, 50 mg/kg, read-out: Area Under Curve AUC) came out at 132 ± 189 µg·h/mL. Further, the half-life in series [2] (both sexes, SD, rat, plasma, po, 50 mg/kg, read-out: Half-Life t½ (converted)) was 4.72 ± 2.82 h. For the same compound, the MRT in series [2] (setting [5]) worked out at 7.2 ± 2.13 h. Moreover, in series [2] (both sexes, SD, rat, plasma, po, 50 mg/kg, read-out: Plasma Conc. Cmax), the Cmax was 17800 ± 22600 ng/mL. The Tmax in series [2] (setting [5]) was determined as 5.25 ± 1.5 h. In addition, the CL/F in series [2] (both sexes, rat, in vivo, po, read-out: Clearance CL/F (converted)) was 40 mL/min/kg.
For the compound `CC1=NN(c2ccc3c(c2)CCC3)C(=O)/C1=N\Nc1cccc(-c2csc(C(=O)O)c2)c1O` [Example 19d, (Z)-4-{2-hydroxy-3-[N′-(1-indan-5-yl-3-methyl-5-oxo-1,5-dihydro-pyrazol-4-ylidene)-hydrazino]-phenyl}-thiophene-2-carboxylic acid], the EC50 at human TPOR was determined as 43 nM. The solubility in series [3] (setting [4]) was less than 1 µg/mL. Moreover, in series [3] (methanol), the solubility is less than 1 µg/mL. In series [3] (water), this compound displayed a solubility of less than 1 µg/mL. In series [2] (50 mg/kg), the “Area Under Curve AUC” value was 36.1 ± 36.4 µg·h/mL, the “Clearance CL/F” value stood at 24 ± 13.8 mL/min/kg, the “Half-Life t½” value is listed as 1.84 ± 1.05 h and the “Mean Residence Time MRT” value is reported as 3.01 ± 1.99 h. In series [2] (50 mg/kg), the “Plasma Conc. Cmax” value amounted to 7910 ± 6840 ng/mL and the “Time to peak Tmax” value is 2.50 ± 0.58 h.
